The record followed here is PMC10288505, “Photoswitchable Calixarene Activators for Controlled Peptide Transport across Lipid Membranes” (Journal of the American Chemical Society, 2023).

Experiment [1] deals with HeLa cells. Kind of experiment: Confocal fluorescence microscopy of TAMRA-R8 cellular uptake. It counts as cell-based. The note with it: TAMRA-R8 3 μM with activator (10, 50, 100, 250 nM), 25 min at 37 °C. The procedure:
(§1) Success in artificial vesicle assays encouraged us to conduct transport experiments of fluorescently labeled peptides in living cells (Figure 5). We first employed confocal fluorescence microscopy to evaluate counterion activator 2 for the intracellular transport of a carboxytetramethylrhodamine-labeled R8 peptide (TAMRA-R8) into the cytosol of HeLa cells. Cationic peptides usually remain trapped inside the endosomes when incubated with cells at low μM concentrations.[32],[44] […] The cytometry experiments validated the E isomer selective transport and indicated a four-fold intracellular delivery enhancement (Figure 5C and Figure S52). […]
Figure 5 (A) Schematic representation of oligoarginine intracellular delivery by both isomers of 2. (B) Confocal fluorescence microscopy images of the cellular uptake of 3 μM TAMRA-R8 (in red) facilitated by E-2/Z-2. […] (C) Fluorescence intensity of HeLa cells incubated with 3 μM TAMRA-R8 in the presence of different E-2/Z-2 concentrations, measured by flow cytometry. […]
(§2) Confocal microscopy assays. […] Fluorescence of Hoechst was excited with the 405 nm laser and the emission was detected at 450/50 nm; for the TAMRA fluorescence, an excitation of 561 nm was used while the emission was detected at 620/60 nm. […]
(§3) Flow cytometry assays. […] TAMRA fluorescence was excited at 532 nm (green laser) and […]

Experiment [2] deals with HeLa cells. Put plainly: Flow cytometry quantification of TAMRA-R8 uptake. It counts as cell-based. The note with it: TAMRA-R8 3 μM, activator 10-250 nM, 25 min, flow cytometry mean fluorescence intensity, quadruplicate. The method, then:
as §1, §2, §3
measured on a Guava easyCyte BG HT collecting the emission at 583/26 nm (Yellow-G channel), using InCyte v3.2 (GuavaSoft, Millipore). Cells with typical FSC and SSC parameters were selected and the mean fluorescence intensity was calculated for each sample. Each condition was measured in quadruplicate. […]

With `CCCCc1ccc(/N=N/c2ccc(OCCCOc3c4cc(S(=O)(=O)[O-])cc3Cc3cc(S(=O)(=O)[O-])cc(c3O)Cc3cc(S(=O)(=O)[O-])cc(c3O)Cc3cc(S(=O)(=O)[O-])cc(c3O)C4)cc2)cc1.[Li+].[Li+].[Li+].[Li+]` [E-2], in the experiment on HeLa cells [1], the “Intracellular TAMRA-R8 fluorescence in the presence of activator” value was “strong diffuse fluorescence signal in the cytosol, nucleus, and nucleolus”. Besides, in the experiment on HeLa cells [2], the “Intracellular delivery enhancement of TAMRA-R8, E isomer relative to Z isomer” value is listed as “four-fold”.
